Drawing on paper PMC9372747, “Genome-wide analysis of UGT gene family identified key gene for the biosynthesis of bioactive flavonol glycosides in Epimedium pubescens Maxim” (Synthetic and Systems Biotechnology, 2022), this text covers Km for one compound.

The test system of the assay is T1, EpGT60.
T1 construct: not anchored to any chromosome
The assay is described as follows: UPLC of rhamnosylated product, GraphPad Prism fit. As to conditions: 4 mM UDP-rhamnose, 1 mM DTT, 50 mM Tris-HCl pH 7.0, 30 °C, 1 h; substrate 100-500 μM. The format is biochemical, Epimedium pubescens.

As for `CC(C)=CCc1c(O)cc(O)c2c(=O)c(O)c(-c3ccc(O)cc3)oc12` [8-prenylkaempferol], the Km – broadly, the substrate concentration at which the rate is half of its maximum – was found to be 289 µM.
